Laboratory results published in BindingDB's records for doi:10.1021/jm00375a008 (1984).

Biological target: Progesterone receptor (Gallus gallus) (UniProt P07812)
Assay: Equilibrium dissociation constant for chick oviduct progesterone receptor

Chain of Progesterone receptor (Gallus gallus) (P07812 whole entry, looked up): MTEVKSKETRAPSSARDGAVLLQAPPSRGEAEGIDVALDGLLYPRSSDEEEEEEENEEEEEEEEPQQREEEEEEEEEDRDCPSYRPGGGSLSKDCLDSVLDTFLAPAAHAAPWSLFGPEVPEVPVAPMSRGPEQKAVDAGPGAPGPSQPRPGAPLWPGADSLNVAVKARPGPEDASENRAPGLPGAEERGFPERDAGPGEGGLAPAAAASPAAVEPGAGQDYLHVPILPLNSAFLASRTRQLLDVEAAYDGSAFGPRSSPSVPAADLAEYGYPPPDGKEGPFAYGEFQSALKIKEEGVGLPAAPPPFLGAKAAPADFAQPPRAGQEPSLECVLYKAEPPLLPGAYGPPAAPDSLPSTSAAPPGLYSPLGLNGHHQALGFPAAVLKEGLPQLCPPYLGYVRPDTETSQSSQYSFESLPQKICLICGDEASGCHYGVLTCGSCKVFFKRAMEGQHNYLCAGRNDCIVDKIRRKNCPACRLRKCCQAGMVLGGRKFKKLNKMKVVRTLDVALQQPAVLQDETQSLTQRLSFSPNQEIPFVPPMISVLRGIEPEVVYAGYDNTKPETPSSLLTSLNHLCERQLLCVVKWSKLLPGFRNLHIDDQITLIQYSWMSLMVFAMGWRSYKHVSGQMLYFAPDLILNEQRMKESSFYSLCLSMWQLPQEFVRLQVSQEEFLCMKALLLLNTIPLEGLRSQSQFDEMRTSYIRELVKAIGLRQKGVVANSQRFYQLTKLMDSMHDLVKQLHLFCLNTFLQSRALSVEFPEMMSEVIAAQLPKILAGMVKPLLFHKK

Kd: 160 nM
Structure (SMILES): C#C[C@@H](O)C12CCCC1C1CCC3=CC(=O)CC[C@@H]3C1CC2 (stereo partly specified)
